According to patent EP4786485A1, “STRAIGHT CHAIN PEPTIDE COMPOUND AND USE THEREOF” (Shenzhen Zhongge Biological Technology Co., Ltd., priority 2023, dated 2026):
Where a SMILES comes first, the peptide text is derived from it. [ ]: non-standard residue; d: D form. The star is where a group is joined. Biotin = O=C1N[C@H]2[C@H](CS[C@H]2CCCCC(=O)*)N1; Phe(3,4-Cl2) = N[C@@H](Cc1ccc(Cl)c(Cl)c1)C(=O)O; Lys(Me3) = C[N+](C)(C)CCCC[C@H](N)C(=O)O; Phe(4-Me) = Cc1ccc(C[C@H](N)C(=O)O)cc1; Palmitoyl = CCCCCCCCCCCCCCCC(=O)*; Hyp = O=C(O)[C@@H]1C[C@@H](O)CN1; Ahp = NCCCCCCC(=O)O; βAla = NCCC(=O)O

Experiments:
Assay type in all cases: cell-based, Human
[1] = test system: Collagen I (type I collagen); assay: ELISA: effect of increasing the content of Collagen I in fibroblasts; parameters: Effect of increasing the content of Collagen I in the fibroblasts: unit not given here; conditions: 1 µM, 24 h; for Effect of increasing the content of Collagen I in the fibroblasts: human-derived fibroblasts, ELISA, blank control BC = 35.6; for increase in the content of type I collagen (Collagen I): in words, compared to the BC, fibroblasts
Method: (§1) B. Effects of increasing the contents of Collagen I (type I collagen), hyaluronic acid (HA), and Elastin (ELN) in fibroblasts
(§2) Test materials: Human-derived fibroblasts (Guangdong BioCell Biotechnology Co., Ltd., Lot No. Fb20081902), DMEM culture medium (Gibco, 23042301, expiration date 230522), PBS (Solarbio, P1010), TGF-β1 (Peprotech, 230504), Collagen I ELISA Kit (Cusabio, B21025824), Elastin ELISA Kit (Abcam, GR3446070-2), HA ELISA Kit (RD, P325066), CO2 incubator (Thermo, 150I), super-clean bench (AIRTECH, SW-CJ-1F), and microplate reader (BioTek, Epoch).
(§3) Test methods: • 1) Inoculation: After cell resuscitation, the cells were inoculated into 6-well plates when the plating rate reached around 60%, and were incubated overnight in an incubator (37°C, 5% CO2). • 2) Formulation of solutions: The linear peptide compounds in the sample groups, and PC2 (Biotinoyl-GHK, [drawing 69] ) and PC3 ( [drawing 70] ) in the positive control group were all at the concentration of 1 µM, and the test substance working solutions were formulated. • 3) Administration: When the cell plating rate in the 6-well plates reached 40% to 60%, administration was performed at 2 mL per well. Three duplicate wells were set for each group. Incubation was performed in an incubator (37°C, 5% CO2) for 24 h. • 4) ELISA assay: The ELISA assays were performed according to the instructions of the respective ELISA kits, with the detection indicators being effect of increasing the content of Collagen I in the fibroblasts, effect of increasing the content of HA in the fibroblasts, and effect of increasing the content of Elastin in the fibroblasts, respectively.

hyaluronic acid (HA) = assay: ELISA: effect of increasing the content of HA in fibroblasts; parameters: Effect of increasing the content of HA in the fibroblasts: unit not given here; conditions: 1 µM, 24 h; for Effect of increasing the content of HA in the fibroblasts: human-derived fibroblasts, ELISA, blank control BC = 1402.44; for increase in the content of hyaluronic acid (HA): in words, compared to the BC, fibroblasts
Method: as §1, §2, §3

Elastin (ELN) = assay: ELISA: effect of increasing the content of Elastin in fibroblasts; parameters: Effect of increasing the content of Elastin in the fibroblasts: unit not given here; conditions: 1 µM; for Effect of increasing the content of Elastin in the fibroblasts: 24 h incubation, ELISA, blank control (BC) 756.52; for increase in the content of Elastin: in words, compared to the BC, 24 h, fibroblasts
Method: as §1, §2, §3

SMILES	Effect of increasing the content of Collagen I in the fibroblasts [1]	increase in the content of type I collagen (Collagen I) [1]	Effect of increasing the content of HA in the fibroblasts (hyaluronic acid (HA))	increase in the content of hyaluronic acid (HA) (hyaluronic acid (HA))	Effect of increasing the content of Elastin in the fibroblasts (Elastin (ELN))	increase in the content of Elastin (Elastin (ELN))
CNC(=O)CNC(=O)[C@H](Cc1c[nH]cn1)NC(=O)[C@H](CCCCN)NC(=O)[C@@H]1CCCN1C(=O)[C@@H]1CCCN1C(=O)[C@@H]1CCCN1C(C)=O [compound 286] (Ac-PPPKHG-NHMe)	53.24	significant increase	2791.21	significant increase	1096.59	significant increase
CCCCCCCCCCCCCCCC(=O)N[C@@H](CCCC[N+](C)(C)C)C(=O)N[C@@H](C)C(=O)N[C@@H](C)C(=O)N[C@@H](C)C(=O)NCC(=O)N[C@@H](Cc1c[nH]cn1)C(=O)N[C@@H](CCCCN)C(=O)O [compound 234] (Palmitoyl-[Lys(Me3)]AAAGHK-OH)	49.53	significant increase	2356.91	significant increase	900.83	significant increase
CCCCCCCCCCCCCCCC(=O)N[C@@H](Cc1ccc(C)cc1)C(=O)N[C@@H](C)C(=O)N[C@@H](CCCCN)C(=O)N[C@@H](Cc1c[nH]cn1)C(=O)NCC(=O)N[C@@H](CCCC[N+](C)(C)C)C(=O)O [compound 415] (Palmitoyl-[Phe(4-Me)]AKHG[Lys(Me3)]-OH)	85.52	significant increase	1570.27	significant increase	1010.76	significant increase
CNC(=O)[C@H](CCCCN)NC(=O)[C@H](Cc1c[nH]cn1)NC(=O)CNC(=O)CCCCCCNC(=O)[C@H](CCCCN)NC(=O)[C@H](Cc1c[nH]cn1)NC(=O)CNC(C)=O [compound 6] (Ac-GHK[Ahp]GHK-NHMe)	44.54	significant increase			1070.92	significant increase
CCCCCCCCCCCCCCCC(=O)NCCCCCCC(=O)N[C@@H](CCCCN)C(=O)N[C@@H](Cc1c[nH]cn1)C(=O)NCC(=O)O [compound 224] ({Palmitoyl-Ahp}-Lys-His-Gly-OH)	56.19	significant increase			932.65	significant increase
CCCCCCCCCCCCCCCC(=O)N1CCC[C@H]1C(=O)N1CCC[C@H]1C(=O)N1CCC[C@H]1C(=O)NCC(=O)N[C@@H](Cc1c[nH]cn1)C(=O)N[C@@H](CCCCN)C(=O)O [compound 294] (Palmitoyl-PPPGHK-OH)	91.47	significant increase	1761.46	significant increase	1037.26	significant increase
CNC(=O)[C@H](Cc1ccc(Cl)c(Cl)c1)NC(=O)[C@H](C)NC(=O)[C@H](CCCCN)NC(=O)[C@H](Cc1c[nH]cn1)NC(=O)CNC(=O)[C@H](CCCC[N+](C)(C)C)NC(C)=O [compound 338] (Ac-[Lys(Me3)]GHKA[Phe(3,4-Cl2)]-NHMe)	89.07	significant increase	1913.07	significant increase	1060.72	significant increase
CNC(=O)[C@H](Cc1ccc(C)cc1)NC(=O)[C@H](CCCCNC(=O)[C@@H]1C[C@@H](O)CN1)NC(=O)[C@H](Cc1c[nH]cn1)NC(=O)CNC(=O)[C@H](CCCC[N+](C)(C)C)NC(C)=O [compound 373] (Ac-[Lys(Me3)]GHK(Hyp)[Phe(4-Me)]-NHMe)	57.84	significant increase	2472.81	significant increase	843.14	significant increase
CCCCCCCCCCCCCCCC(=O)N[C@@H](CCCC[N+](C)(C)C)C(=O)NCC(=O)N[C@@H](Cc1c[nH]cn1)C(=O)N[C@@H](CCCCN)C(=O)N[C@@H](C)C(=O)N[C@@H](Cc1ccc(C)cc1)C(=O)O [compound 424] (Palmitoyl-[Lys(Me3)]GHKA[Phe(4-Me)]-OH)	97.9	significant increase			897.36	significant increase
Cc1ccc(C[C@H](NC(=O)[C@H](CCCCNC(=O)[C@@H]2C[C@@H](O)CN2)NC(=O)[C@H](Cc2c[nH]cn2)NC(=O)CNC(=O)[C@H](CCCC[N+](C)(C)C)NC(=O)CCCC[C@@H]2SC[C@@H]3NC(=O)N[C@@H]32)C(N)=O)cc1 [compound 406] (Biotin-[Lys(Me3)]GHK(Hyp)[Phe(4-Me)]-NH2)	88.9	significant increase	1473.32	significant increase	947.33	significant increase
CNC(=O)CNC(=O)[C@H](Cc1c[nH]cn1)NC(=O)[C@H](CCCCN)NC(=O)CCCCCCNC(C)=O [compound 77] (Ac-[Ahp]KHG-NHMe)	89.94	significant increase	3493	significant increase	1093.49	significant increase
NCCCC[C@H](NC(=O)CCCCCCNC(=O)CCCC[C@@H]1SC[C@@H]2NC(=O)N[C@@H]21)C(=O)N[C@@H](Cc1c[nH]cn1)C(=O)NCC(N)=O [compound 242] ({Biotin-Ahp}-Lys-His-Gly-NH2)	70.24	significant increase			1159.72	significant increase
C[C@H](NC(=O)[C@H](Cc1ccc(Cl)c(Cl)c1)NC(=O)CCCC[C@@H]1SC[C@@H]2NC(=O)N[C@@H]21)C(=O)N[C@@H](CCCCN)C(=O)N[C@@H](Cc1c[nH]cn1)C(=O)NCC(=O)N[C@@H](CCCC[N+](C)(C)C)C(N)=O [compound 419] (Biotin-[Phe(3,4-Cl2)]AKHG[Lys(Me3)]-NH2)	109.96	significant increase			1015.58	significant increase
C[N+](C)(C)CCCC[C@H](NC(=O)CCCC[C@@H]1SC[C@@H]2NC(=O)N[C@@H]21)C(=O)NCCCCCCC(=O)NCC(=O)N[C@@H](Cc1c[nH]cn1)C(=O)N[C@@H](CCCCNC(=O)[C@@H]1CCCN1)C(N)=O [compound 265] (Biotin-[Lys(Me3)][Ahp]GHK(Pro)-NH2)	56.34	significant increase			1008.26	significant increase
CNC(=O)[C@H](CCCCN)NC(=O)[C@H](Cc1c[nH]cn1)NC(=O)CNC(=O)CCNC(=O)CCNC(=O)[C@H](CCCCN)NC(=O)[C@H](Cc1c[nH]cn1)NC(=O)CNC(C)=O [compound 21] (Ac-GHK[βAla][βAla]GHK-NHMe)			2423.11	significant increase	1160.14	significant increase
